Measurements as given in patent publication US6436963B1 (priority 1998, dated 2002).

Columns and labels:
Assay type in all cases: in vivo
Erysiphe graminis = test: Powdery Mildew of Wheat (ERYSGT), protectant spray test on wheat seedlings; conditions: wheat (cultivar Monon), sprayed to run off at 100 ppm, inoculated after 24 hours
Puccinia recondita = test: Brown Rust (PUCCRT), protectant spray test on wheat seedlings; conditions: wheat (cultivar Monon), sprayed to run off at 100 ppm, inoculated after 24 hours
Leptosphaeria nodorum = test: Glume Blotch of Wheat (LEPTNO), protectant spray test on wheat seedlings; conditions: wheat (cultivar Monon), sprayed to run off at 100 ppm, inoculated after 24 hours
Phytophthora infestans = conditions: tomatoes (cultivar Rutgers), sprayed to run off at 100 ppm, inoculated after 24 hours

Structure (SMILES): CNC(=O)C(=NOC)c1ccccc1COc1ncc(C(OC(=O)C(C)(C)C)c2ccccc2)cc1Cl (racemic) [Example 30]
- ERYSGT control of plant disease (Erysiphe graminis): + (+ = 25-74% control of plant disease)
- PUCCRT control of plant disease (Puccinia recondita): ++ (++ = 75-100% control of plant disease)
- LEPTNO control of plant disease (Leptosphaeria nodorum): ++ (++ = 75-100% control of plant disease)
- PHYTIN control of plant disease (Phytophthora infestans): ++ (++ = 75-100% control of plant disease)

Structure (SMILES): CNC(=O)C(=NOC)c1ccccc1COc1ncc(C(OC(C)=O)c2ccc3ccccc3c2)cc1Cl (stereo not shown) [Example 83]
- ERYSGT control of plant disease (Erysiphe graminis): ++ (++ = 75-100% control of plant disease)
- PUCCRT control of plant disease (Puccinia recondita): ++ (++ = 75-100% control of plant disease)
- LEPTNO control of plant disease (Leptosphaeria nodorum): ++ (++ = 75-100% control of plant disease)
- PHYTIN control of plant disease (Phytophthora infestans): ++ (++ = 75-100% control of plant disease)

Structure (SMILES): CNC(=O)C(=NOC)c1ccccc1COc1ncc(C(OC(=O)N(C)C)c2ccccc2)cc1Cl (racemic) [Example 45]
- ERYSGT control of plant disease (Erysiphe graminis): ++ (++ = 75-100% control of plant disease)
- PUCCRT control of plant disease (Puccinia recondita): ++ (++ = 75-100% control of plant disease)
- LEPTNO control of plant disease (Leptosphaeria nodorum): ++ (++ = 75-100% control of plant disease)
- PHYTIN control of plant disease (Phytophthora infestans): ++ (++ = 75-100% control of plant disease)

Structure (SMILES): CNC(=O)C(=NOC)c1ccccc1COc1ncc(C(OC(C)=O)c2ccccc2)cc1C (stereo not shown) [Example 98]
- ERYSGT control of plant disease (Erysiphe graminis): ++ (++ = 75-100% control of plant disease)
- PUCCRT control of plant disease (Puccinia recondita): ++ (++ = 75-100% control of plant disease)
- LEPTNO control of plant disease (Leptosphaeria nodorum): ++ (++ = 75-100% control of plant disease)
- PHYTIN control of plant disease (Phytophthora infestans): ++ (++ = 75-100% control of plant disease)

Structure (SMILES): CNC(=O)C(=NOC)c1ccccc1COc1ncc(C2(c3ccccc3)CO2)cc1Cl (stereo not shown) [Example 124]
- ERYSGT control of plant disease (Erysiphe graminis): ++ (++ = 75-100% control of plant disease)
- PUCCRT control of plant disease (Puccinia recondita): ++ (++ = 75-100% control of plant disease)
- LEPTNO control of plant disease (Leptosphaeria nodorum): ++ (++ = 75-100% control of plant disease)
- PHYTIN control of plant disease (Phytophthora infestans): ++ (++ = 75-100% control of plant disease)

Structure (SMILES): CNC(=O)C(=NOC)c1ccccc1COc1ncc(C(OC(=O)OC(C)C)c2ccccc2)cc1Cl (racemic) [Example 56]
- ERYSGT control of plant disease (Erysiphe graminis): ++ (++ = 75-100% control of plant disease)
- PUCCRT control of plant disease (Puccinia recondita): ++ (++ = 75-100% control of plant disease)
- LEPTNO control of plant disease (Leptosphaeria nodorum): ++ (++ = 75-100% control of plant disease)
- PHYTIN control of plant disease (Phytophthora infestans): ++ (++ = 75-100% control of plant disease)

Structure (SMILES): CNC(=O)C(=NOC)c1ccccc1COc1ncc(C(C)OC(=O)C(C)(C)C)cc1Cl (racemic) [Example 24]
- ERYSGT control of plant disease (Erysiphe graminis): ++ (++ = 75-100% control of plant disease)
- PUCCRT control of plant disease (Puccinia recondita): ++ (++ = 75-100% control of plant disease)
- LEPTNO control of plant disease (Leptosphaeria nodorum): ++ (++ = 75-100% control of plant disease)
- PHYTIN control of plant disease (Phytophthora infestans): − (− = 0-24% control of plant disease)

Structure (SMILES): CCOCCOC(c1ccccc1)c1cnc(OCc2ccccc2C(=NOC)C(=O)NC)c(Cl)c1 (stereo not shown) [Example 118]
- ERYSGT control of plant disease (Erysiphe graminis): ++ (++ = 75-100% control of plant disease)
- PUCCRT control of plant disease (Puccinia recondita): ++ (++ = 75-100% control of plant disease)
- LEPTNO control of plant disease (Leptosphaeria nodorum): ++ (++ = 75-100% control of plant disease)
- PHYTIN control of plant disease (Phytophthora infestans): − (− = 0-24% control of plant disease)

Structure (SMILES): CCC(O)c1cnc(OCc2ccccc2C(=NOC)C(=O)NC)c(Cl)c1 (stereo not shown) [Example 90]
- ERYSGT control of plant disease (Erysiphe graminis): ++ (++ = 75-100% control of plant disease)
- PUCCRT control of plant disease (Puccinia recondita): ++ (++ = 75-100% control of plant disease)
- LEPTNO control of plant disease (Leptosphaeria nodorum): + (+ = 25-74% control of plant disease)
- PHYTIN control of plant disease (Phytophthora infestans): ++ (++ = 75-100% control of plant disease)

Structure (SMILES): CNC(=O)C(=NOC)c1ccccc1COc1ncc(C(OC2CCCCO2)c2ccccc2)cc1Cl (mixture of isomers) [Example 57]
- ERYSGT control of plant disease (Erysiphe graminis): ++ (++ = 75-100% control of plant disease)
- PUCCRT control of plant disease (Puccinia recondita): ++ (++ = 75-100% control of plant disease)
- LEPTNO control of plant disease (Leptosphaeria nodorum): ++ (++ = 75-100% control of plant disease)
- PHYTIN control of plant disease (Phytophthora infestans): ++ (++ = 75-100% control of plant disease)

Structure (SMILES): CNC(=O)C(=NOC)c1ccccc1COc1ncc(C(OC)c2ccccc2F)cc1Cl (stereo not shown) [Example 99]
- ERYSGT control of plant disease (Erysiphe graminis): ++ (++ = 75-100% control of plant disease)
- PUCCRT control of plant disease (Puccinia recondita): ++ (++ = 75-100% control of plant disease)
- LEPTNO control of plant disease (Leptosphaeria nodorum): ++ (++ = 75-100% control of plant disease)
- PHYTIN control of plant disease (Phytophthora infestans): − (− = 0-24% control of plant disease)

Structure (SMILES): CNC(=O)C(=NOC)c1ccccc1COc1ncc(C(OC(C)=O)c2ccccc2F)cc1Cl (stereo not shown) [Example 82]
- ERYSGT control of plant disease (Erysiphe graminis): ++ (++ = 75-100% control of plant disease)
- PUCCRT control of plant disease (Puccinia recondita): ++ (++ = 75-100% control of plant disease)
- LEPTNO control of plant disease (Leptosphaeria nodorum): ++ (++ = 75-100% control of plant disease)
- PHYTIN control of plant disease (Phytophthora infestans): ++ (++ = 75-100% control of plant disease)

Structure (SMILES): CNC(=O)C(=NOC)c1ccccc1COc1ncc(C(OC(C)=O)c2ccc(C)cc2)cc1Cl (stereo not shown) [Example 71]
- ERYSGT control of plant disease (Erysiphe graminis): ++ (++ = 75-100% control of plant disease)
- PUCCRT control of plant disease (Puccinia recondita): ++ (++ = 75-100% control of plant disease)
- LEPTNO control of plant disease (Leptosphaeria nodorum): ++ (++ = 75-100% control of plant disease)
- PHYTIN control of plant disease (Phytophthora infestans): ++ (++ = 75-100% control of plant disease)

Structure (SMILES): CNC(=O)C(=NOC)c1ccccc1COc1ncc(C(O)c2ccccc2C)cc1Cl (racemic) [Example 59]
- ERYSGT control of plant disease (Erysiphe graminis): ++ (++ = 75-100% control of plant disease)
- PUCCRT control of plant disease (Puccinia recondita): ++ (++ = 75-100% control of plant disease)
- LEPTNO control of plant disease (Leptosphaeria nodorum): ++ (++ = 75-100% control of plant disease)
- PHYTIN control of plant disease (Phytophthora infestans): ++ (++ = 75-100% control of plant disease)

Structure (SMILES): CNC(=O)C(=NOC)c1ccccc1COc1ncc(C(COC(C)=O)(OC(C)=O)c2ccccc2)cc1Cl (stereo not shown) [Example 107]
- ERYSGT control of plant disease (Erysiphe graminis): ++ (++ = 75-100% control of plant disease)
- PUCCRT control of plant disease (Puccinia recondita): ++ (++ = 75-100% control of plant disease)
- LEPTNO control of plant disease (Leptosphaeria nodorum): ++ (++ = 75-100% control of plant disease)
- PHYTIN control of plant disease (Phytophthora infestans): ++ (++ = 75-100% control of plant disease)

Structure (SMILES): CNC(=O)C(=NOC)c1ccccc1COc1ncc(C(OC(C)=O)c2ccccc2)cc1Cl (stereo not shown) [Example 76]
- ERYSGT control of plant disease (Erysiphe graminis): ++ (++ = 75-100% control of plant disease)
- PUCCRT control of plant disease (Puccinia recondita): ++ (++ = 75-100% control of plant disease)
- LEPTNO control of plant disease (Leptosphaeria nodorum): ++ (++ = 75-100% control of plant disease)
- PHYTIN control of plant disease (Phytophthora infestans): ++ (++ = 75-100% control of plant disease)

Structure (SMILES): CNC(=O)C(=NOC)c1ccccc1COc1ncc(C(O)c2ccc(OC)c(OC)c2)cc1Cl (stereo not shown) [Example 110]
- ERYSGT control of plant disease (Erysiphe graminis): ++ (++ = 75-100% control of plant disease)
- PUCCRT control of plant disease (Puccinia recondita): ++ (++ = 75-100% control of plant disease)
- LEPTNO control of plant disease (Leptosphaeria nodorum): ++ (++ = 75-100% control of plant disease)
- PHYTIN control of plant disease (Phytophthora infestans): ++ (++ = 75-100% control of plant disease)

Structure (SMILES): CNC(=O)C(=NOC)c1ccccc1COc1ncc(C(OCc2ccc(OC)cc2)c2ccccc2)cc1Cl (stereo not shown) [Example 101]
- ERYSGT control of plant disease (Erysiphe graminis): ++ (++ = 75-100% control of plant disease)
- PUCCRT control of plant disease (Puccinia recondita): ++ (++ = 75-100% control of plant disease)
- LEPTNO control of plant disease (Leptosphaeria nodorum): + (+ = 25-74% control of plant disease)
- PHYTIN control of plant disease (Phytophthora infestans): ++ (++ = 75-100% control of plant disease)

Structure (SMILES): CNC(=O)C(=NOC)c1ccccc1COc1ncc(C(O)c2ccccc2C(F)(F)F)cc1Cl (stereo not shown) [Example 81]
- ERYSGT control of plant disease (Erysiphe graminis): ++ (++ = 75-100% control of plant disease)
- PUCCRT control of plant disease (Puccinia recondita): ++ (++ = 75-100% control of plant disease)
- LEPTNO control of plant disease (Leptosphaeria nodorum): + (+ = 25-74% control of plant disease)
- PHYTIN control of plant disease (Phytophthora infestans): ++ (++ = 75-100% control of plant disease)
